Experimental data published in publication PMC6691401 (Journal of Medicinal Chemistry, 2019).

Molecular target: Mab TrmD (Mycobacteroides abscessus, UniProt B1MDI3)
Test: Isothermal titration calorimetry (ITC)
Format: binding
Conditions: for GE (R^1): group efficiency of R^1; for LE: ligand efficiency

Chain of Mab TrmD (B1MDI3 entry or part of it): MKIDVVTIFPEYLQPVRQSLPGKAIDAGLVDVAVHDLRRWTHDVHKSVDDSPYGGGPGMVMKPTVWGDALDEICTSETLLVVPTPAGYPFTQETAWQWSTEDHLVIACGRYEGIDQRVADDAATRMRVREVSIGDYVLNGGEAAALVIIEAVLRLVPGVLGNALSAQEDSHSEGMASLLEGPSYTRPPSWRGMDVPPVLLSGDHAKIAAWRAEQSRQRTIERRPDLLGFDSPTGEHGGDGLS

Compound: N#Cc1c(N)n[nH]c1-c1ccc2ccn(Cc3ccc(O)nc3)c2c1 [Compound 26k, 3-Amino-5-(1-((6-hydroxypyridin-3-yl)methyl)-1H-indol-6-yl)-1H-pyrazole-4-carbonitrile]
- GE (R^1) (Table 5): 0.10 kcal mol^–1 per heavy atom
- LE (Table 5): 0.32 kcal mol^–1 per heavy atom
- LE: 0.32 kcal mol^–1 per heavy atom

Compound: N#Cc1c(N)n[nH]c1-c1ccc2c(Cl)cn(Cc3cccnc3)c2c1 [Compound 27g, 3-Amino-5-(3-chloro-1-(pyridin-3-ylmethyl)-1H-indol-6-yl)-1H-pyrazole-4-carbonitrile]
- LE (Table 5): 0.28 kcal mol^–1 per heavy atom
- LE: 0.28 kcal mol^–1 per heavy atom

Compound: N#Cc1c(N)n[nH]c1-c1ccc2ccn(Cc3cccnc3)c2c1 [Compound 26g, 3-Amino-5-(1-(pyridin-3-ylmethyl)-1H-indol-6-yl)-1H-pyrazole-4-carbonitrile]
- fold improvement in binding affinity (decrease of Kd) relative to 26f: greater than 2 fold
- GE (R^1) (Table 5): 0.28 kcal mol^–1 per heavy atom
- LE (Table 5): 0.38 kcal mol^–1 per heavy atom
- LE: 0.38 kcal mol^–1 per heavy atom

Compound: N#Cc1c(N)n[nH]c1-c1ccc2ccn(Cc3ccncc3)c2c1 [Compound 26l, 3-Amino-5-(1-(pyridin-4-ylmethyl)-1H-indol-6-yl)-1H-pyrazole-4-carbonitrile]
- fold improvement in binding affinity (decrease of Kd) relative to 26f: 4 fold
- GE (R^1) (Table 5): 0.31 kcal mol^–1 per heavy atom
- LE (Table 5): 0.39 kcal mol^–1 per heavy atom
- LE: 0.39 kcal mol^–1 per heavy atom

Compound: CCOc1cccc(COC(=O)c2cn[nH]c2)c1 [Compound 10, 3-Ethoxybenzyl 1H-Pyrazole-4-carboxylate]
- LE (Table 2): 0.38 kcal mol^–1 per heavy atom
- LE: 0.38 kcal mol^–1 per heavy atom

Compound: COc1cc(COC(=O)c2cn[nH]c2)cc(N2CCCC2)c1 [Compound 13, 3-Methoxy-5-(pyrrolidin-1-yl)benzyl 1H-Pyrazole-4-carboxylate]
- LE (Table 2): 0.31 kcal mol^–1 per heavy atom
- LE: 0.31 kcal mol^–1 per heavy atom

Compound: N#Cc1c(N)n[nH]c1-c1ccc2cc[nH]c2c1 [Compound 25, 3-Amino-5-(1H-indol-6-yl)-1H-pyrazole-4-carbonitrile]
- LE (Table 4): 0.43 kcal mol^–1 per heavy atom
- GE (group efficiency of the added group): 0.91 kcal mol^–1 per heavy atom
- LE: 0.43 kcal mol^–1 per heavy atom

Compound: O=C(OCc1ccccc1)c1cn[nH]c1 [Compound 3, Benzyl 1H-Pyrazole-4-carboxylate]
- LE (Table 1): 0.41 kcal mol^–1 per heavy atom
- LE: 0.41 kcal mol^–1 per heavy atom

Compound: N#Cc1ccccc1Cn1ccc2ccc(-c3cc(N)n[nH]3)cc21 [Compound 24d, 2-((6-(3-Amino-1H-pyrazol-5-yl)-1H-indol-1-yl)methyl)benzonitrile]
- GE (R^1) (Table 4): 0.15 kcal mol^–1 per heavy atom
- LE (Table 4): 0.28 kcal mol^–1 per heavy atom
- LE: 0.28 kcal mol^–1 per heavy atom

Compound: COc1cc(COC(=O)c2cn[nH]c2)cc(Cc2cccnc2)c1 [Compound 15]
- LE (Table 2): 0.28 kcal mol^–1 per heavy atom
- LE: 0.28 kcal mol^–1 per heavy atom

Compound: Nc1cc(-c2ccc3ccn(Cc4ccc(CN5CCCCC5)cc4)c3c2)[nH]n1 [Compound 31b, 5-(1-(4-(Piperidin-1-ylmethyl)benzyl)-1H-indol-6-yl)-1H-pyrazol-3-amine]
- Kd (Table 6): 710 ± 90 nM
- GE (CH2R^1) (Table 6, group efficiency of CH2R^1): 0.28 kcal mol^–1 per heavy atom
- LE (Table 6): 0.29 kcal mol^–1 per heavy atom

Compound: N#Cc1c(N)n[nH]c1-c1ccc2ccn(Cc3ccc(CN4CCCCC4)cc3)c2c1 [Compound 29b, 3-Amino-5-(1-(4-(piperidin-1-ylmethyl)benzyl)-1H-indol-6-yl)-1H-pyrazole-4-carbonitrile]
- Kd (Table 6): 70 ± 29 nM
- LE (Table 6): 0.31 kcal mol^–1 per heavy atom

Compound: N#Cc1cccc(COC(=O)c2cn[nH]c2)c1 [Compound 6, 3-Cyanobenzyl 1H-Pyrazole-4-carboxylate]
- LE (Table 1): 0.36 kcal mol^–1 per heavy atom
